Results on three substances are retold here after patent US6534491B2, “Preparation and use of ortho-sulfonamido bicyclic heteroaryl hydroxamic acids as matrix metalloproteinase and tace inhibitors” (priority 1996, dated 2003).

One may read the IC50 as the concentration at which inhibition is half-maximal.

One experiment has as its target T1, MMP-1 (Homo sapiens, UniProt P03956).
T1 sequence (P03956 100-469): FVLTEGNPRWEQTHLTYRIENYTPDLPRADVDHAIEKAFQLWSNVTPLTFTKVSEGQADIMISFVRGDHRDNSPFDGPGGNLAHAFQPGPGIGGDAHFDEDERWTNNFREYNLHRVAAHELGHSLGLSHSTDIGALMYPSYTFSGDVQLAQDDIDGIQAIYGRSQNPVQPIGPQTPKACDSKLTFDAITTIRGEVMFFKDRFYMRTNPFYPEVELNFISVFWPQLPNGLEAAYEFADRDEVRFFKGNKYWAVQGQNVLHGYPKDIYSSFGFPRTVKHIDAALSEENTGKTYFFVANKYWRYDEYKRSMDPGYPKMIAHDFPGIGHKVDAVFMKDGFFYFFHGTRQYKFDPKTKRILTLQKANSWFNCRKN
The following applies: read-out: MMP-1 IC50.

The next experiment has as its target TACE (Homo sapiens, UniProt P78536). Description: TACE inhibition (fluorescent peptidyl substrate). Format: biochemical.
Another experiment has as its target MMP-9 (Homo sapiens, UniProt P14780). Description: MMP-9 inhibition (thiopeptide or fluorescent peptide substrate). Format: biochemical. The conditions noted are these: read-out: MMP-9 IC50.
The next experiment has as its target MMP-13 (Homo sapiens, UniProt P45452). Description: In vivo MMP inhibition test procedure (implanted dialysis tubing containing enzyme). Also noted: species or system rat or mouse. The following applies: dose 25 mg/kg, p.o. vs MMP-13.

Chain of TACE (P78536 215-824): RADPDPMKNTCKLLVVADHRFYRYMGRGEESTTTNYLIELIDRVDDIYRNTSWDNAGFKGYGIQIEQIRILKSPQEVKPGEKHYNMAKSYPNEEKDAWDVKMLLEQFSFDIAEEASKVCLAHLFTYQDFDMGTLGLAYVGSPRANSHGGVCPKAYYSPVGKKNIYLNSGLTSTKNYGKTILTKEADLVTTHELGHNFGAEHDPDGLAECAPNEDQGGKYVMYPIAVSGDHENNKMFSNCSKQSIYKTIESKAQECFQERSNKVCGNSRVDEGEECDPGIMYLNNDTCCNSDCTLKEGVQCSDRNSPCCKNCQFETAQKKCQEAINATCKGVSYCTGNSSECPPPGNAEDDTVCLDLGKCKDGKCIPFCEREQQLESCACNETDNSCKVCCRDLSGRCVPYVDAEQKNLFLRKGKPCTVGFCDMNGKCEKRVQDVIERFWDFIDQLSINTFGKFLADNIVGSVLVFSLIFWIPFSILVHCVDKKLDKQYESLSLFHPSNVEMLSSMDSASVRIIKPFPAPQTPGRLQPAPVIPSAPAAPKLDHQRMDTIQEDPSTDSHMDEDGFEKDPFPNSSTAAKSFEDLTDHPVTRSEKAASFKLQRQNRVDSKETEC
Chain of MMP-9 (P14780 94-707): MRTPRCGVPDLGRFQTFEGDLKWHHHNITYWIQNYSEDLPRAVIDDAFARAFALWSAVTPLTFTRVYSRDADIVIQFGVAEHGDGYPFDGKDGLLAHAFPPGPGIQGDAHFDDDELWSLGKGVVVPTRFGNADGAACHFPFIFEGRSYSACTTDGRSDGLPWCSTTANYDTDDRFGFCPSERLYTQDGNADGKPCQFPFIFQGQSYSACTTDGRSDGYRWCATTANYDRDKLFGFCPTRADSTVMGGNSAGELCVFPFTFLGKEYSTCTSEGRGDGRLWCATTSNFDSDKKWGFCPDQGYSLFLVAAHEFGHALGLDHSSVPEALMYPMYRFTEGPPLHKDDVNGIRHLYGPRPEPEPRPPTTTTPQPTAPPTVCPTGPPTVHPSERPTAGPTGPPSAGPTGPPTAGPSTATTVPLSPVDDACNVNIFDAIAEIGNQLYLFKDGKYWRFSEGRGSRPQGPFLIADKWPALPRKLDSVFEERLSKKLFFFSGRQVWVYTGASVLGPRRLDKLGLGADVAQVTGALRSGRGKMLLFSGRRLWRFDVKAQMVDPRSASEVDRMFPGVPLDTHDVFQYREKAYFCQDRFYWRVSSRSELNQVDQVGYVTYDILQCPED
Procedure for MMP-13: A 2 cm piece of dialysis tubing (molecular weight cut-off 12-14,000, 10 mm flat width) containing matrix metalloproteinase enzyme (stromelysin, collagenase or gelatinase in 0.5 mL of buffer) is implanted either ip or sc (in the back) of a rat (Sprague-Dawley, 150-200 g) or mouse (CD-1, 25-50 g) under anesthesia. Drugs are administered PO, IP, SC or IV through a canula in the jugular vein. […] Contents of the dialysis tubing is collected and enzyme activity assayed.
Enzyme reaction rates for each dialysis tube are calculated. Tubes from at least 3 different animals are used to calculate the mean±sem. Statistical significance (p<0.05) of vehicle-treated animals versus drug-treated animals is determined by analysis of variance.
Procedure for MMP-9: The enzyme activity is measured by the rate of the color increase. The thiopeptide substrate is made up fresh as a 20 mM stock in 100% DMSO and the DTNB is dissolved in 100% DMSO as a 100 mM stock and stored in the dark at room temperature. Both the substrate and DTNB are diluted together to 1 mM with substrate buffer (50 mM HEPES pH 7.5, 5 mM CaCl2) before use. The stock of enzyme is diluted with buffer (50 mM HEPES, pH 7.5, 5 mM CaCl2, 0.02% Brij) to the desired final concentration.
Alternatively, a fluorescent peptide substrate is used. In this test procedure, the peptide substrate contains a fluorescent group and a quenching group. Upon cleavage of the substrate by an MMP, the fluorescence that is generated is quantitated on the fluorescence plate reader. The assay is run in HCBC assay buffer (50 mM HEPES, pH 7.0, 5 mM Ca^+2, 0.02% Brij, 0.5% Cysteine), with human recombinant MMP-1, MMP-9, or MMP-13. The substrate is dissolved in methanol and stored frozen in 1 mM aliquots. For the assay, substrate and enzymes are diluted in HCBC buffer to the desired concentrations. Compounds are added to the 96 well plate containing enzyme and the reaction is started by the addition of substrate.
For either the thiopeptide or fluorescent peptide test procedures, the slope of the line is calculated and represents the reaction rate. The linearity of the reaction rate is confirmed (r^2>0.85). The mean (x±sem) of the control rate is calculated and compared for statistical significance (p<0.05) with drug-treated rates using Dunnett's multiple comparison test.
Procedure for TACE: Using 96-well black microtiter plates, each well receives a solution composed of 10 μL TACE (final concentration 1 μg/mL), 70 μL Tris buffer, pH 7.4 containing 10% glycerol (final concentration 10 mM), and 10 μL of test compound solution in DMSO (final concentration 1 μl M, DMSO concentration <1%) and incubated for 10 minutes at room temperature.
The reaction is read (excitation 340 nm, emission 420 nm) for 10 min. and the increase in fluorescence over time is plotted as a linear line. The slope of the line is calculated and represents the reaction rate.
The linearity of the reaction rate is confirmed (r^2>0.85). The mean (x±sem) of the control rate is calculated and compared for statistical significance (p<0.05) with drug-treated rates using Dunnett's multiple comparison test.

Take “4-[Methyl-(4-methoxy-benzenesulfonyl)-amino]-6-phenylethyl-quinoline-3-carboxylic acid hydroxyamide [Example 35]”: the IC50 at MMP-1 was found to be 234 nM; against TACE, 49 nM.
Turning to “4-{Methyl-(4-(pyridin-4-yloxy)-benzenesulfonyl]-amino}-6-iodo-quinoline-3-carboxylic acid hydroxyamide hydrochloride [Example 33]”, at MMP-1, the IC50 is 1010 nM.
On to “4-{[4-(4-Chlorophenyloxy)benzenesulfonyl]methylamino}-1,3-dimethyl-1H-pyrazolo[3,4-b]pyridine-5-carboxylic Acid, Hydroxyamide [Example 89]”, for which the IC50 at MMP-9 was found to be 0.8 nM; at MMP-1 it was 116 nM; on TACE, 356 ± 15 nM. In addition, the “in-vivo MMP % inhibition” value on MMP-13 was 6% (25).
